Source: US6469028B1, “Synthesis and use of retinoid compounds having negative hormone and/or anatgonist activities” (Allergan, Inc., priority 1995, dated 2002)

Experiments:
[1] = system: ER-RXR-α; assay: Example 11: ER-RXR-α alone, ERE-tk-Luc, CV-1 cells
[2] = system: hairless mice; assay: Example 2: skin irritation and weight loss by oral agonist, topical antagonist; assay type: in vivo
Description: Mice were simultaneously treated topically on the dorsal skin with vehicle (97.6% acetone/2.4% dimethylsulfoxide) or solutions of AGN 193109 in vehicle (6 ml/kg). Specific doses for the different treatment groups are give in Table 8. Treatments were administered daily for 4 consecutive days. Mice were weighed and graded for topical irritation daily as described in Example 1 up to and including 1 day after the last treatment. Percent body weight change is calculated by subtracting […], dividing by initial body weight, and multiplying by 100%. Topical irritation scores are calculated as described in Example 1.

[3] = system: guinea pigs; assay: Example 5: premature epiphyseal plate closure (bone toxicity); assay type: in vivo; settings: AGN 191183 0.06 mg/ml + AGN 193109 0.34 mg/ml (5-fold molar excess), osmotic pump, 14 days
Description: The osmotic pumps are designed by the manufacturer to deliver ˜5 μl of solution per hour continuously for 14 days.
The animals were euthanized by carbon dioxide asphyxiation 14 days after implantation. The left tibia was removed and placed in 10% buffered formalin. The tibias were decalcified by exposure to a formic acid/formalin solution for 3-4 days, and paraffin sections were prepared. Sections were stained with hematoxylin and eosin by standard methods. The proximal tibial epiphyseal plate was examined and scored as closed or not closed. Epiphyseal plate closure is defined for this purpose as any interruption of the continuity of the epiphyseal growth plate cartilage, i.e., replacement by bone and/or fibroblastic tissue.

[4] = system: cervical carcinoma patients; assay: Example 23: clinical study in cervical carcinoma patients with metastatic disease; assay type: in vivo, human; settings: maximum tolerated dose every other day, three months to one year
Description: Patients are divided into two groups. The first group is a control group while members of the second group are treated with AGN 193109. AGN 193109 is combined with a pharmaceutically acceptable excipient to produce a composition suitable for systemic administration, all according to techniques that will be familiar to one having ordinary skill in the art. The control group is administered a placebo formulation and the experimental group is administered with the formulation containing the AGN 193109 negative hormone. Dosing of patients is at the maximum tolerated dose and is performed every other day for a period of from three months to one year. The outcome of the study is quantified via measurement of disease-free survival over time.

[5] = molecular target: T1, RARβ (Homo sapiens, UniProt P10826); assay: Transactivation in CV-1 cells, ΔMTV-TREp-Luc reporter; assay type: cell-based; set-up: expressed in transfected cells; host or cells: green monkey CV-1 cells; settings: 10^−9 to 10^−6 M, 18 hours
T1 sequence (P10826 1-448 isoform P10826-2): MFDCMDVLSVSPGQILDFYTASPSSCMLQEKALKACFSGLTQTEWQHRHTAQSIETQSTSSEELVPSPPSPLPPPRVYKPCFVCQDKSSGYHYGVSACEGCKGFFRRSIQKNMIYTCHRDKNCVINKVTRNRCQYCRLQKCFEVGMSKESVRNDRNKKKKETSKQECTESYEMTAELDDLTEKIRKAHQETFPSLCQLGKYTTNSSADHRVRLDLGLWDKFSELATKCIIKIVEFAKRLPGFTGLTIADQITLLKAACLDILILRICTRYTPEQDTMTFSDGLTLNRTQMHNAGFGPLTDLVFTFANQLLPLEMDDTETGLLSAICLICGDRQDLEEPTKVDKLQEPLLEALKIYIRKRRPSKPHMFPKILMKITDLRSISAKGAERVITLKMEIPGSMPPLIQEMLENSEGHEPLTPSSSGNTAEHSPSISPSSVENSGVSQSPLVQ
Description: (§1) AGN 193109 was also tested for its ability to transactivate RARs in CV-1 cells transiently cotransfected with RAR expression vectors and a retinoid responsive reporter gene construct. Receptor expression vectors pRShRAR-α (Giguere et al. Nature 330:624 (1987)), pRShRAR-β (Benbrook et al. Nature 333:669 (1988)) and pRShRAR-γ (Ishikawa et al. Mol. Endocrinol. 4:837 (1990)) were separately cotransfected with the ΔMTV-TREp-Luc reporter plasmid. Use of this luciferase reporter plasmid has been disclosed by Heyman et al. in Cell 68:397 (1992). The ΔMTV-TREp-Luc plasmid is essentially identical to the ΔMTV-TREp-CAT reporter construct described by Umesono et al. in Nature 336:262 (1988), except that the chloramphenicol acetyltransferase (CAT) reporter gene was substituted by a polynucleotide sequence encoding firefly luciferase. Transfection of green monkey CV-1 cells was carried out using the calcium phosphate coprecipitation method described in Molecular Cloning: A Laboratory Manual (Sambrook et al. eds. Cold Spring Harbor Lab Publ. 1989). CV-1 cells were plated at a density of 4×10^4/well in 12 well multiwell plates and transiently transfected with a calcium phosphate precipitate containing 0.7 μg of reporter plasmid and 0.1 μg of receptor plasmid according to standard laboratory procedures. […]

[6] = molecular target: T2, RARα (Homo sapiens, UniProt P10276); assay: as above; assay type: cell-based; set-up: expressed in transfected cells; host or cells: green monkey CV-1 cells; settings: 10^−9 to 10^−6 M, 18 hours
T2 sequence (P10276 1-462): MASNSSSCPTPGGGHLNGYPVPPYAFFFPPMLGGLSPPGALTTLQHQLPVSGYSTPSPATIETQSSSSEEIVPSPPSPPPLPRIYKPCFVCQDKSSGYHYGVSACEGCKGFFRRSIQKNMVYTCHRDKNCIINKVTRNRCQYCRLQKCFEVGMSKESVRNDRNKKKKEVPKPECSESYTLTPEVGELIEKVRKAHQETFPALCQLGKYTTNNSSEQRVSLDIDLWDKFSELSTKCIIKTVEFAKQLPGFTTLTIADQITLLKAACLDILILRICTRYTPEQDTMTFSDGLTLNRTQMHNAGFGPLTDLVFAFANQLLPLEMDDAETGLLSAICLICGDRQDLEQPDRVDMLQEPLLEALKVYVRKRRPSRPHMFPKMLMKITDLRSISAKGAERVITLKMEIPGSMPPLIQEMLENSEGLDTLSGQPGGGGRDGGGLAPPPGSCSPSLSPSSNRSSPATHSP
Description: as §1

[7] = group E: topical AGN 193109 0.47 mg/kg/d alone

## Cc1ccc(C2=CCC(C)(C)c3ccc(C#Cc4ccc(C(=O)O)cc4)cc32)cc1 [Compound 60, 4-[(5,6-dihydro-5,5-dimethyl-8-(4-methylphenyl)-2-naphthalenyl)ethynyl]benzoic acid]
[1]; cells transfected only with ER-RXR-α, AGN 193109 as high as 10^−6 M
  luciferase expression levels: approximately 8,000 rlu
[1]; reporter and chimeric receptor without RAR-γ-VP-16
  luciferase activity: did not exhibit any effect on luciferase activity
[2]; group C: topical AGN 193109 […] + oral AGN 191183 0.26 mg/kg/d
  Topical Irritation Score: 1 ± 1
[2]; group C: topical AGN 193109 […] + oral AGN 191183 0.26 mg/kg/d, parentheses = loss
  % Weight Gain or (Loss): (9 ± 5) %
[2]; group D: topical AGN 193109 0.47 mg/kg/d + oral AGN 191183 0.26 mg/kg/d
  Topical Irritation Score: 0 ± 1
[2]; group D: topical AGN 193109 0.47 mg/kg/d + oral AGN 191183 0.26 mg/kg/d, parentheses = loss
  % Weight Gain or (Loss): (3 ± 5) %
[2]; [7]
  % Weight Gain or (Loss): 3 ± 3%
  Topical Irritation Score: 0 ± 0
[3]
  epiphyseal plate closure: completely blocked AGN 191183-induced bone toxicity
[4]
  disease-free survival: significant increase in disease-free survival
[5]
  EC50 (nM) RAR-β: No Activity
[6]
  EC50 (nM) RAR-α: No Activity
